# Assay results taken from patent US7361769B2, “Heterocyclyls as selective melanin concentrating hormone receptor antagonists for the treatment of obesity and related disorders” (Schering Corporation, priority 2004, dated 2008).
# Read-outs that look alike come from different tables or passages of the source.
# Legend:
# hERG channels = target: T1, hERG channels (Homo sapiens, UniProt Q12809); test: Herg-Rb two phase screen (rubidium efflux); type: cell-based; settings: CHO cells expressing hERG, relative to complete block with 10 μM dofetilide; for herg-Rb 1.5 μg/mL (%): test article at 1.5 μg/ml; for herg-Rb 5 μg/mL (%): test article at 5 μg/ml
# T1 construct: expressed in transfected cells
# T1 sequence (Q12809 whole entry): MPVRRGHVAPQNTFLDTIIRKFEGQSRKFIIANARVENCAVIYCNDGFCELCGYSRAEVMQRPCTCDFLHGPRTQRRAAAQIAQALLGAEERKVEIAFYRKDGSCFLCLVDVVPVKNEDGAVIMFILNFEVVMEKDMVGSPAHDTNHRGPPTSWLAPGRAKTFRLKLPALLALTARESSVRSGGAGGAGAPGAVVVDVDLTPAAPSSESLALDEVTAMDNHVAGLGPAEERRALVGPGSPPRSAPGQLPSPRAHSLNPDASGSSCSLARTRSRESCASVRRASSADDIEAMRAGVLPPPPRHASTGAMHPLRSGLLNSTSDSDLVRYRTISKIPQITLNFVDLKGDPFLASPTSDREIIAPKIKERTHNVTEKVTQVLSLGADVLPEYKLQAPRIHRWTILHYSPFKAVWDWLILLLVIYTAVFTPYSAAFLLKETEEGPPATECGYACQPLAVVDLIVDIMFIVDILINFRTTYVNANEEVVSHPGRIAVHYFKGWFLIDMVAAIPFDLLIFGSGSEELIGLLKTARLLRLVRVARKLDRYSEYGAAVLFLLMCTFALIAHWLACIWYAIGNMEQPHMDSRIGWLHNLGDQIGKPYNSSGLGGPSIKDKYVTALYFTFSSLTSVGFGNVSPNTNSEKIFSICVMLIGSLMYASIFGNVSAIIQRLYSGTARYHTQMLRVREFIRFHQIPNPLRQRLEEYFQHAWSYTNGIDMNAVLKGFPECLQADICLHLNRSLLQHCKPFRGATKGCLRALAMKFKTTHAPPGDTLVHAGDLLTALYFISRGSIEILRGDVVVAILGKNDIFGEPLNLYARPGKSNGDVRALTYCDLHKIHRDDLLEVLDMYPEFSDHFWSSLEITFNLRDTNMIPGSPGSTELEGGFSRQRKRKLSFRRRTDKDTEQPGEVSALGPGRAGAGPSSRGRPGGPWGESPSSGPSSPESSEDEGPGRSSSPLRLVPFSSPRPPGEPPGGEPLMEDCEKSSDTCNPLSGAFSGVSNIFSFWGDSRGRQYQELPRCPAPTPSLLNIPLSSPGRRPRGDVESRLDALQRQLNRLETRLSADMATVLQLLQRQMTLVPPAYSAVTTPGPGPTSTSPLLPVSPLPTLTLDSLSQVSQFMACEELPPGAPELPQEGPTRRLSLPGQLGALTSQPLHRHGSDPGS
# Method: Herg-Rb data (μg/mL) (%) was determined by the following two phase screen. The first phase is a cell-handling phase in which cells are loaded with rubidium, drugs are added and efflux initiated by KCl-depolarization. The second phase is measurement of rubidium content in cell supernatants that are collected at the end of the cell-handling phase. CHO cells expressing hERG in a stable manner are used for these studies. Cells are plated into 96-well dishes one day prior to study. After overnight culture, the normal tissue culture medium is removed and cells are loaded with rubidium for 3 hours in a HEPES-buffered physiological saline solution containing 5 mM rubidium chloride in place of potassium chloride. During the final 30 minutes of rubidium loading cells are pre-equilibrated with test articles at 1.5 μg/ml and 5 μg/ml. Cells are then washed with rubidium-free HEPES buffered physiological saline solution containing 5 mM KCl to remove all extracellular rubidium. The final step of the cell handling phase is to depolarize the cells in HEPES buffered physiological saline containing 50 mM KCl. This opens hERG channels and permits efflux of rubidium. Supernatants are collected after 5 minutes and rubidium content is measured using a flame atomic absorbance spectrometer with a robot for sampling from 96-well plates (ICR-8000, Aurora Biomed Inc., Vancouver, British Columbia). In cases where the channel is blocked the amount of rubidium efflux is reduced. Drug effects are calculated based on the difference between wells with no added compound and wells in which there is complete block of hERG channels with a well-known positive standard (10 μM dofetilide).
# MCH receptor = target: T2, MCH receptor (Homo sapiens, UniProt Q99705); test: MCH receptor binding assay ([125I]-MCH, SPA); settings: membranes from CHO cells expressing the MCH receptor
# T2 construct: expressed in transfected cells; host or cells: CHO cells (membrane preparation)
# T2 sequence (Q99705 whole entry): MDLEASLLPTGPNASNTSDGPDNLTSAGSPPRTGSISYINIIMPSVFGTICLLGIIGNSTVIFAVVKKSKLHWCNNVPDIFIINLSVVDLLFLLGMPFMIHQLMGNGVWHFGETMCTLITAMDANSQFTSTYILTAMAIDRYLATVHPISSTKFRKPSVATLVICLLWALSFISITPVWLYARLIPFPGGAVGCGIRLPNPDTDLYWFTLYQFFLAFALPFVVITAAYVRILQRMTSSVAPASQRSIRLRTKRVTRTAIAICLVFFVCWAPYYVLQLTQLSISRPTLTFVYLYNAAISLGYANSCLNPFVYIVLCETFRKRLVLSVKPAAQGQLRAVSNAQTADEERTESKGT
# Method: MCH Receptor Binding Assay:
# Membranes from CHO cells expressing the MCH receptor were prepared by lysing cells with 5 mM HEPES for 15 min at 4 C. Cell lysates were centrifuged ([…], 15 min) and the pellet was re-suspended in 5 mM HEPES. For each 96-well plate (Microlite, Dynex Technologies), 1 mg of cell membranes were incubated with 10 mg of wheat germ agglutinin SPA beads (Amersham) for 5 min at 4 C in a volume of 10 ml of binding buffer (25 mM HEPES, 10 mM MGCl2, 10 mM NaCl, 5 mM MnCl2, 0.1% BSA). The membrane/bead mixture was centrifuged (1500×g, 3.5 min), the supernatant was aspirated, and the pellet was resuspended in 10 ml binding buffer. The centrifugation, aspiration and resuspension were then repeated. The membrane/bead mixture (100 μl) was then added to 96-well plates containing 50 μl of 500 pM [^125I]-MCH (NEN) and […] of the appropriate concentration of compound (4× the desired final concentration). Nonspecific binding was determined by including 1 μM MCH in the binding reaction. The binding reaction was incubated at room temperature for 2 h. Plates were then analyzed in a TOPCOUNT microplate scintillation counter (Packard). Data was analyzed and Ki values were determined using GraphPad Prism.
SMILES,herg-Rb 1.5 μg/mL (%) (hERG channels),herg-Rb 5 μg/mL (%) (hERG channels),Ki (MCH receptor; read-out: Class (Ki)),Ki (MCH receptor; read-out: Ki)
NCc1ccc(C2=CCC(N(CCN3CCCC3)C(=O)Nc3ccc(F)c(Cl)c3)CC2)s1 (centres unmarked) [Example 1],22%,26%,< 30 nM,8 nM
CN(C)Cc1ccc(C2=CCC(N(CCN3CCCC3)C(=O)Nc3ccc(F)c(Cl)c3)CC2)s1 (centres unmarked) [Example 2],–,–,> 100 nM,–
O=C(Nc1ccc(F)c(Cl)c1)N(CCN1CCCC1)C1CC=C(c2ccc(CN3CCC3)s2)CC1 (centres unmarked) [Example 3],−1%,15%,> 100 nM,–
O=C(Nc1ccc(F)c(Cl)c1)N(CCN1CCCC1)C1CC=C(c2ccc(CN3CCCC3)s2)CC1 (centres unmarked) [Example 4],−1%,20%,> 100 nM,–
O=C(Nc1ccc(F)c(Cl)c1)N(CCN1CCCC1)C1CC=C(c2ccc(CN3CC[C@H](O)C3)s2)CC1 (some centres unmarked) [Example 5],0%,6%,30 to 100 nM,–
CNCc1ccc(C2=CCC(N(CCN3CCCC3)C(=O)Nc3ccc(F)c(Cl)c3)CC2)s1 (centres unmarked) [Example 6],–,–,< 30 nM,–
NCc1ncc(C2=CCC(N(CCN3CCCC3)C(=O)Nc3ccc(F)c(Cl)c3)CC2)s1 (centres unmarked) [Example 7],−1%,10%,< 30 nM,–
CN(C)Cc1ncc(C2=CCC(N(CCN3CCCC3)C(=O)Nc3ccc(F)c(C(F)(F)F)c3)CC2)s1 (centres unmarked) [Example 8],–,–,> 100 nM,–
CN(C)Cc1ncc(C2=CCC(N(CCN3CCCC3)C(=O)Nc3ccc(F)c(Cl)c3)CC2)s1 (centres unmarked) [Example 9],–,–,> 100 nM,–
NCc1ncc(C2=CCC(N(CCN3CCCC3)C(=O)Nc3ccc(F)c(C(F)(F)F)c3)CC2)s1 (centres unmarked) [Example 10],9%,26%,< 30 nM,–
NCc1cnc(C2=CCC(N(CCN3CCCC3)C(=O)Nc3ccc(F)c(Cl)c3)CC2)s1 (centres unmarked) [Example 11],9%,14%,< 30 nM,–
NCc1ncc([C@]23CC[C@@H](N(CCN4CCCC4)C(=O)Nc4ccc(F)c(C(F)(F)F)c4)[C@H]2C3)s1 [Example 12],13%,16%,> 100 nM,–
NCc1ncc([C@]23CC[C@@H](N(CCN4CC[C@H](O)C4)C(=O)Nc4ccc(F)c(C(F)(F)F)c4)[C@H]2C3)s1 [Example 13],13%,8%,30 to 100 nM,–
NCc1ncc([C@@]23C[C@H](N(CCCN4CC[C@H](O)C4)C(=O)Nc4ccc(F)c(C(F)(F)F)c4)C[C@@H]2C3)s1 [Example 14],–,–,> 100 nM,–
NCc1ncc([C@]23CC[C@@H](N(CCCN4CC[C@H](O)C4)C(=O)Nc4ccc(F)c(C(F)(F)F)c4)C2C3)s1 (some centres unmarked) [Example 15],−4%,−4%,30 to 100 nM,–
C[C@@H]1CN(CCCN(C(=O)Nc2ccc(F)c(C(F)(F)F)c2)[C@@H]2CC[C@]3(c4cnc(CN)s4)CC23)[C@@H](C)CN1 (some centres unmarked) [Example 16],−11%,−8%,< 30 nM,–
NCc1ncc([C@]23CC[C@@H](N(CCCN4CC5CC4CN5)C(=O)Nc4ccc(F)c(C(F)(F)F)c4)C2C3)s1 (some centres unmarked) [Example 17],0%,14%,30 to 100 nM,–
NCc1ncc([C@]23CC[C@@H](N(CCCN4CC[C@@H](O)C4)C(=O)Nc4ccc(F)c(C(F)(F)F)c4)C2C3)s1 (some centres unmarked) [Example 18],−5%,−4%,< 30 nM,–
C[C@@H]1CN(CCCN(C(=O)Nc2cc(Cl)nc(Cl)c2)[C@@H]2CC[C@]3(c4cnc(CN)s4)CC23)[C@@H](C)CN1 (some centres unmarked) [Example 19],−10%,3%,< 30 nM,–
NCc1ncc([C@@]23CC[C@H](N(CCCN4CC[C@@H](O)C4)C(=O)Nc4ccc(F)c(C(F)(F)F)c4)[C@@H]2C3)s1 [Example 20],–,–,> 100 nM,–
NCc1ncc([C@]23CC[C@@H](N(CCCN4CC[C@@H](O)C4)C(=O)Nc4ccc(F)c(C(F)(F)F)c4)[C@H]2C3)s1 [Example 21],–,–,< 30 nM,–
